SMILES strings stand for the structures. pIC50: −log10 of the molar value.

The first assay addresses T1, stearoyl-CoA desaturase (SCD) (Rattus norvegicus, UniProt P07308).
T1 construct: The microsomes were quickly thawed and added to assay buffer so that a concentration of 0.4 mg/ml was achieved; from tissue
T1 sequence (P07308 1-358): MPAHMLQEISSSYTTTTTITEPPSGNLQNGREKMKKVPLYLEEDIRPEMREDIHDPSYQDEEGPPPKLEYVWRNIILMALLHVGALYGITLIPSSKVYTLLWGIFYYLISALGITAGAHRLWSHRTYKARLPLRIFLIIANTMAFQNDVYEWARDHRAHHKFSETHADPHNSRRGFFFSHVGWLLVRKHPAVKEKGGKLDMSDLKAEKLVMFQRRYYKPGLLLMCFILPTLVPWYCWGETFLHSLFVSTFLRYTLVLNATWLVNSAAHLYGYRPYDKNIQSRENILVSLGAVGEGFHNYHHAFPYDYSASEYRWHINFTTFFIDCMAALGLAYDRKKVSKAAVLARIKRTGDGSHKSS
In words: SCD assay with rat liver microsomes ([3H]stearoyl CoA, adapted from Talamo and Bloch). Type of assay: biochemical. The conditions noted are these: Table 1; rat liver microsomes 0.2 mg/ml assay final, [3H]stearoyl CoA substrate, 30 min preincubation, 45 min reaction, room temperature. An outline of the steps: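 Liver microsomes came from diet-induced male Sprague Dawley rats and were used at 0.2 mg/ml final. Assay buffer was Tris pH 7.2 with NADH, ATP, CoA, MgCl2 and 0.1% BSA. Compounds were preincubated 30 min, then reacted 45 min at room temperature with [3H]stearoyl-CoA; after TCA stop and Bio-Bead cleanup, supernatant radioactivity was counted by scintillation.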
In general terms: Microsomes from liver hold many membrane-bound enzymes, among them those of drug oxidation.
Consider `O=C(COc1ccccc1)Nc1ccc2c(=O)n(Cc3ccc(Cl)cc3)cnc2c1` [XLIV, N-{3-[(4-chlorophenyl)methyl]-4-oxo(3-hydroquinazolin-7-yl)}-2-phenoxyacetamide], for which the pIC50 (commonly the IC50 on a negative log10 scale, so that one unit is a factor of ten) was 5.80.

On to `O=C(COc1cccnc1)Nc1ccc2c(=O)n(Cc3ccc(Cl)cc3)cnc2c1` [XLIX, N-{3-[(4-chlorophenyl)methyl]-4-oxo(3-hydroquinazolin-7-yl)}-2-(3-pyridyloxy)acetamide], for which the pIC50 was 5.60.

With `O=C(Nc1ccc2ncn(Cc3ccc4sccc4c3)c(=O)c2c1)OCc1ccccc1` [XLV, N-[3-(benzo[b]thiophen-5-ylmethyl)-4-oxo(3-hydroquinazolin-6-yl)](phenylmethoxy)carboxamide], the negative logarithm of the IC50 (pIC50) was 6.07.

`O=C(Nc1ccc2ncn(Cc3ccc(F)c(Cl)c3)c(=O)c2c1)OCc1ccccc1` [XLVI, N-{3-[(3-chloro-4-fluorophenyl)methyl]-4-oxo(3-hydroquinazolin-6-yl)}(phenylmethoxy)carboxamide] had a pIC50 of 6.35.

`CC(=O)OCC(=O)Nc1ccc2ncn(Cc3ccc(Cl)c(Cl)c3)c(=O)c2c1` [XLVII, (N-{3-[(3,4-dichlorophenyl)methyl]-4-oxo-3-hydroquinazolin-6-yl}carbamoyl)methyl acetate] showed a pIC50 of 7.00.

Consider `O=C(Nc1ccc2c(=O)n(Cc3ccc(Cl)cc3)cnc2c1)OCc1ccccc1` [XLVIII, N-{3-[(4-chlorophenyl)methyl]-4-oxo(3-hydroquinazolin-7-yl)}(phenylmethoxy)carboxamide], for which the pIC50 is 7.05.

As for `O=C(COc1ccccc1)Nc1ccc2ncn(Cc3ccc(Cl)c(Cl)c3)c(=O)c2c1` [XV, N-{3-[(3,4-dichlorophenyl)methyl]-4-oxo(3-hydroquinazolin-6-yl)}-2-phenoxyacetamide], the pIC50 is 6.66.

In turn, `O=C(Nc1ccc2ncn(CCc3ccc(Cl)cc3)c(=O)c2c1)OCc1ccccc1` [XVI, N-{3-[2-(4-chlorophenyl)ethyl]-4-oxo(3-hydroquinazolin-6-yl)}(phenylmethoxy)carboxamide] showed a pIC50 of 6.33.

For `COc1ccc(OCC(=O)Nc2ccc3ncn(Cc4ccc(Cl)c(Cl)c4)c(=O)c3c2)cc1` [XVII, N-{3-[(3,4-dichlorophenyl)methyl]-4-oxo(3-hydroquinazolin-6-yl)}-2-(4-methoxyphenoxy)acetamide], the pIC50 was 5.53.

The compound `O=C(COc1ccc(F)cc1)Nc1ccc2ncn(Cc3ccc(Cl)c(Cl)c3)c(=O)c2c1` [XVIII, N-{3-[(3,4-dichlorophenyl)methyl]-4-oxo(3-hydroquinazolin-6-yl)}-2-(4-fluorophenoxy)acetamide] gave a pIC50 of 5.68.

Take `Cc1cc(C)cc(OCC(=O)Nc2ccc3ncn(Cc4ccc(Cl)c(Cl)c4)c(=O)c3c2)c1` [XX, N-{3-[(3,4-dichlorophenyl)methyl]-4-oxo(3-hydroquinazolin-6-yl)}-2-(3,5-dimethylphenoxy)acetamide]: the pIC50 was 5.53.

As for `Cc1cccc(C)c1OCC(=O)Nc1ccc2ncn(Cc3ccc(Cl)c(Cl)c3)c(=O)c2c1` [XXI, N-{3-[(3,4-dichlorophenyl)methyl]-4-oxo(3-hydroquinazolin-6-yl)}-2-(2,6-dimethylphenoxy)acetamide], the negative logarithm of the IC50 (pIC50) was 5.46.

`Cc1ccc(OCC(=O)Nc2ccc3ncn(Cc4ccc(Cl)c(Cl)c4)c(=O)c3c2)cc1` [XXII, N-{3-[(3,4-dichlorophenyl)methyl]-4-oxo(3-hydroquinazolin-6-yl)}-2-(4-methylphenoxy)acetamide] showed a pIC50 of 5.24.

For the compound `O=C(Nc1ccc2ncn(Cc3ccc(Cl)c(Cl)c3)c(=O)c2c1)OCc1cccnc1` [XXIII, N-{3-[(3,4-dichlorophenyl)methyl]-4-oxo(3-hydroquinazolin-6-yl)}(3-pyridylmethoxy)carboxamide], the pIC50 was 6.77.

As for `O=C(Nc1ccc2ncn(Cc3ccc(F)cc3)c(=O)c2c1)OCc1ccccc1` [XXIV, N-{3-[(4-fluorophenyl)methyl]-4-oxo(3-hydroquinazolin-6-yl)}(phenylmethoxy)carboxamide], the pIC50 was 6.52.

Compound `O=C(COc1ccccc1Cl)Nc1ccc2ncn(Cc3ccc(Cl)c(Cl)c3)c(=O)c2c1` [XXIX, N-{3-[(3,4-dichlorophenyl)methyl]-4-oxo(3-hydroquinazolin-6-yl)}-2-(2-chlorophenoxy)acetamide] gave a pIC50 of 5.70.

In the case of `COc1ccccc1OCC(=O)Nc1ccc2ncn(Cc3ccc(Cl)c(Cl)c3)c(=O)c2c1` [XXV, N-{3-[(3,4-dichlorophenyl)methyl]-4-oxo(3-hydroquinazolin-6-yl)}-2-(2-methoxyphenoxy)acetamide], the pIC50 was 6.11.

Take `O=C(COc1ccccc1F)Nc1ccc2ncn(Cc3ccc(Cl)c(Cl)c3)c(=O)c2c1` [XXVI, N-{3-[(3,4-dichlorophenyl)methyl]-4-oxo(3-hydroquinazolin-6-yl)}-2-(2-fluorophenoxy)acetamide]: the pIC50 is 5.43.

The compound `O=C(COc1cccc(F)c1)Nc1ccc2ncn(Cc3ccc(Cl)c(Cl)c3)c(=O)c2c1` [XXVII, N-{3-[(3,4-dichlorophenyl)methyl]-4-oxo(3-hydroquinazolin-6-yl)}-2-(3-fluorophenoxy)acetamide] showed a pIC50 of 5.70.

`O=C(COc1ccc(F)cc1F)Nc1ccc2ncn(Cc3ccc(Cl)c(Cl)c3)c(=O)c2c1` [XXVIII, N-{3-[(3,4-dichlorophenyl)methyl]-4-oxo(3-hydroquinazolin-6-yl)}-2-(2,4-difluorophenoxy)acetamide] showed a pIC50 of 5.46.

With `O=C(COc1cccc(Cl)c1Cl)Nc1ccc2ncn(Cc3ccc(Cl)c(Cl)c3)c(=O)c2c1` [XXX, N-{3-[(3,4-dichlorophenyl)methyl]-4-oxo(3-hydroquinazolin-6-yl)}-2-(2,3-dichlorophenoxy)acetamide], the pIC50 was 5.42.

Regarding `O=C(COc1ccccc1[N+](=O)[O-])Nc1ccc2ncn(Cc3ccc(Cl)c(Cl)c3)c(=O)c2c1` [XXXI, N-{3-[(3,4-dichlorophenyl)methyl]-4-oxo(3-hydroquinazolin-6-yl)}-2-(2-nitrophenoxy)acetamide], the pIC50 was 4.82.

Regarding `O=C(COc1ccc2ccccc2c1)Nc1ccc2ncn(Cc3ccc(Cl)c(Cl)c3)c(=O)c2c1` [XXXII, N-{3-[(3,4-dichlorophenyl)methyl]-4-oxo(3-hydroquinazolin-6-yl)}-2-(2-naphthyloxy)acetamide], the pIC50 was 5.55.

`O=C(CCOc1ccccc1)Nc1ccc2ncn(Cc3ccc(Cl)c(Cl)c3)c(=O)c2c1` [XXXIII, N-{3-[(3,4-dichlorophenyl)methyl]-4-oxo(3-hydroquinazolin-6-yl)}-3-phenoxypropanamide] had a negative logarithm of the IC50 (pIC50) of 5.16.

For the compound `CC(Oc1ccccc1Cl)C(=O)Nc1ccc2ncn(Cc3ccc(Cl)c(Cl)c3)c(=O)c2c1` (stereo not shown) [XXXIV, N-{3-[(3,4-dichlorophenyl)methyl]-4-oxo(3-hydroquinazolin-6-yl)}-2-(2-chlorophenoxy)propanamide], the pIC50 was 5.68.

`O=C(COc1ccccc1)Nc1ccc2ncn(Cc3ccc(Cl)c(F)c3)c(=O)c2c1` [XXXIX, N-{3-[(4-chloro-3-fluorophenyl)methyl]-4-oxo(3-hydroquinazolin-6-yl)}-2-phenoxyacetamide]: the pIC50 was 5.21.

`O=C(COc1cccc2nsnc12)Nc1ccc2ncn(Cc3ccc(Cl)c(Cl)c3)c(=O)c2c1` [XXXV, 2-benzo[c]1,2,5-thiadiazol-4-yloxy-N-{3-[(3,4-dichlorophenyl)methyl]-4-oxo(3-hydroquinazolin-6-yl)}acetamide] had a pIC50 of 4.68.

`O=C(COc1cccnc1)Nc1ccc2ncn(Cc3ccc(Cl)c(Cl)c3)c(=O)c2c1` [XXXVI, N-{3-[(3,4-dichlorophenyl)methyl]-4-oxo(3-hydroquinazolin-6-yl)}-2-(3-pyridyloxy)acetamide] had a pIC50 of 5.51.

For the compound `O=C(CSc1ccncc1)Nc1ccc2ncn(Cc3ccc(Cl)cc3)c(=O)c2c1` [XXXVII, N-{3-[(4-chlorophenyl)methyl]-4-oxo(3-hydroquinazolin-6-yl)}-2-(4-pyridylthio)acetamide], the negative-log IC50 (pIC50) is 5.14.

Compound `O=C(COc1ccccc1)Nc1ccc2ncn(Cc3ccc(Br)cc3)c(=O)c2c1` [XXXVIII, N-{3-[(4-bromophenyl)methyl]-4-oxo(3-hydroquinazolin-6-yl)}-2-phenoxyacetamide] showed a pIC50 of 4.82.

The same assay, now with this note: Table 2 (Example 21, procedures of Example 20); rat liver microsomes, [3H]stearoyl CoA substrate.
In turn, `CC(=O)OCC(=O)Nc1ccc2ncn(Cc3ccc(F)c(F)c3)c(=O)c2c1` [compound 1, 2-(3-(3,4-difluorobenzyl)-4-oxo-3,4-dihydroquinazolin-6-ylamino)-2-oxoethyl acetate] had a pIC50 of 5.68.

`O=C(CO)Nc1ccc2ncn(Cc3ccc(F)c(F)c3)c(=O)c2c1` [compound 2, N-(3-(3,4-difluorobenzyl)-4-oxo-3,4-dihydroquinazolin-6-yl)-2-hydroxyacetamide] gave a pIC50 of 5.62.

Turning to `CC(=O)OCC(=O)Nc1ccc2ncn(Cc3ccc(Cl)cc3)c(=O)c2c1` [compound 3, 2-(3-(4-chlorobenzyl)-4-oxo-3,4-dihydroquinazolin-6-ylamino)-2-oxoethyl acetate], the pIC50 is 6.03.

`O=C(CO)Nc1ccc2ncn(Cc3ccc(Cl)cc3)c(=O)c2c1` [compound 4, N-(3-(4-chlorobenzyl)-4-oxo-3,4-dihydroquinazolin-6-yl)-2-hydroxyacetamide] gave a negative-log IC50 (pIC50) of 5.92.

Source of the values: patent US20090105283A1, “3-HYDROQUINAZOLIN-4-ONE DERIVATIVES FOR USE AS STEAROYL CoA DESATURASE INHIBITORS” (priority 2007, published 2009).
